According to patent publication US20260317367A1, “SALTS INCLUDING CRYSTALLINE SALTS OF 25-HYDROXY-CHOLEST-5-EN-3-SULFATE AND METHODS FOR PREPARING SAME” (Durect Corporation, priority 2022, published 2026):
“Also recorded” adds a separate entry of the source. Where a name gives a salt, the structure may show the parent alone.

Legend:
Format in all cases: physicochemical
[1] = Appearance (color, clumping, flowability) of stored 25HC3S salts; conditions: for Appearance: listed as 25HC3S hydroxyethylammonium
[2] = Solubility of 25HC3S salts after one day at room temperature (HPLC, as free acid); conditions: one day
Outline: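 25HC3S salts were shaken with excess solid at room temperature for one day in organic solvents or aqueous/biorelevant media (FaSSIF, FeSSIF, FaSSGF), then centrifuged. Supernatants were assayed by HPLC against a free-acid standard curve (11 μg/mL to 1.5 mg/mL); values are mg/mL free acid, LOD 0.0007 mg/mL.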

[3] = Angle of repose of 25HC3S salts; conditions: listed as 25HC3S hydroxyethylammonium
Outline: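 About 2 g of salt powder was poured through a 7 mm inner-diameter tube into a 21.14 mm rubber O-ring, forming a cone of fixed diameter. Cone height was measured with calipers and the angle of repose was calculated from it. Flow was classified per USP<1174>.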

[4] = Solid-state chemical stability of 25HC3S salts at 2-8° C., 60° C. and 80° C. (HPLC assay and degradation products); conditions: for % Impurities, Total / % Impurities, 25-HC: ND = Not Detected; for % Impurities, 25-HC: 25-Hydroxy-Cholesterol; for Physical and chemical solid-state stability (comments): listed as 25HC3S Hydroxyethylammonium
Outline: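 Crystalline 25HC3S salts (~25 mg powder per vial) stored at 2-8° C. or 80° C., pulled at 3 and 6 weeks; some 3-week 2-8° C. vials moved to 60° C. for 1 week. Dissolved in 100% methanol (sonication/vortexing, centrifugation or dilution), then HPLC against 25HC3S sodium standards (0.75-1.25 mg/mL) for assay and degradants.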

[5] = Hausner ratio and compressibility index of 25HC3S salts; conditions: listed as 25HC3S hydroxyethylammonium
Outline: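 Powder poured into a 5 mL graduated cylinder to about 5.0 mL (Vo), tapped 200 then 100 more times on a hard surface; final volume Vf recorded after 300 taps. Compressibility index and Hausner ratio calculated from Vo and Vf; flow character classed per USP <1174>.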

[6] = 2-8° C., 3 wk, listed as 25HC3S hydroxyethylammonium
[7] = 60° C., 1 wk, listed as 25HC3S hydroxyethylammonium

CC(CCCC(C)(C)O)C1CCC2C3CC=C4CC(OS(=O)(=O)O)CCC4(C)C3CCC12C (centres unmarked) [Salt #5]
Appearance ([1]; 2-8° C., 3 wk): White, free flowing powder, no clumping | Appearance ([1]; 60° C., 1 wk (after 3 weeks at 2-8° C.)): Light brown, partially melted material | Appearance after 3 weeks at 80° C. ([1]; 80° C., 3 weeks): completely burned | Appearance ([1]; 80° C., 3 wk): Dark brown, partially melted material | solubility at 24 h ([2]; 0.9% nacl, room temperature, as free acid, ND = not detected, detection limit 0.7 μg/mL, read-out: Solubility in 0.9% NaCl): 2 µg/mL | Solubility in 5% Dextrose ([2]; 5% dextrose, room temperature, as free acid, ND = not detected, detection limit 0.7 μg/mL, 1440 min, listed as 25HC3S hydroxyethylammonium): 45 µg/mL | Solubility in FaSSGF (in words) ([2]; FaSSGF, room temperature, listed as crystalline 25HC3S hydroxyethylammonium): low solubility | Solubility in FaSSIF ([2]; FaSSIF, room temperature, as free acid, 1440 min, listed as 25HC3S hydroxyethylammonium): 107 µg/mL | Solubility in FaSSGF ([2]; Fasted State Simulated Gastric Fluid, pH 1.6, room temperature, as free acid, LOD 0.0007 mg/mL): no solubilized drug was detected | Solubility in FeSSIF ([2]; FeSSIF, room temperature, as free acid, 1440 min, listed as 25HC3S hydroxyethylammonium): 718 µg/mL | Solubility in methanol (in words) ([2]; MeOH, room temperature): did not reach saturation | Solubility in ACN ([2]; acetonitrile, room temperature, as free acid, 1440 min, listed as 25HC3S hydroxyethylammonium): 200 µg/mL | Solubility in EtOH ([2]; ethanol, room temperature, as free acid, ≥ = did not reach saturation, 1440 min, listed as 25HC3S hydroxyethylammonium): ≥22000 µg/mL | Solubility in IPA ([2]; isopropyl alcohol, room temperature, as free acid, 1440 min, listed as 25HC3S hydroxyethylammonium): 3700 µg/mL | Solubility in MeOH ([2]; methanol, room temperature, as free acid, ≥ = did not reach saturation, 1440 min, listed as 25HC3S hydroxyethylammonium): ≥47000 µg/mL | Solubility in H2O ([2]; water, room temperature, as free acid, ND = not detected, detection limit 0.7 μg/mL, 1440 min, listed as 25HC3S hydroxyethylammonium): 43 µg/mL | Angle of Repose [3]: 24.8 degrees | Angle of Repose, Rounded Whole Number ([3]; rounded whole number): 25 degrees | Assay ([4]; 2-8° C., 3 wk, 30240 min, listed as 25HC3S hydroxyethylammonium): 91.9 % w/w | % Impurities, Total [4, 6]: 3.1% | Overall physical and chemical stability (in words) ([4]; 2-8° C., 60° C., 80° C.): least stable organic salt; also recorded: least physically and chemically stable | % Impurities, 25-HC [4, 6]: 1.2% | % Impurities, 25-HC [4, 7]: 11.3% | Physical and chemical solid-state stability (comments) ([4]; 60° C., 1 week): Totally decomposed after 1 week at 60 °C and after 3 weeks at 80 °C | Assay ([4]; 60° C., 1 wk (after 3 weeks at 2-8° C.), 10080 min, listed as 25HC3S hydroxyethylammonium, 10080 min): 0.0 % w/w | % Recovery of 2-8° C./3 wk vs 60° C./1 wk ([4]; 60° C., 1 wk, 10080 min, listed as 25HC3S hydroxyethylammonium): 0.0% | % Impurities, Total [4, 7]: 99.7% | Physical and chemical solid-state stability (comments) ([4]; 80° C., 3 weeks): Totally decomposed after 1 week at 60 °C and after 3 weeks at 80 °C | % Recovery ([4]; 80° C., 3 wk, vs 2-8° C., 30240 min, listed as 25HC3S hydroxyethylammonium, 30240 min): 0.0% | Assay ([4]; 80° C., 3 wk, 30240 min, listed as 25HC3S hydroxyethylammonium): 0.0 % w/w | % Impurities, Total ([4]; 80° C., 3 wk, listed as 25HC3S hydroxyethylammonium): 100.1% | Stability after 1 week at 60° C. (in words) ([4]; solid state, 60° C., 1 week (after 3 weeks at 2-8° C.)): totally decomposed | Stability after 3 weeks at 80° C. (in words) ([4]; solid state, 80° C., 3 weeks): totally decomposed | Compressibility Index ([5]; Table C3 heads this index in %): 18 | Hausner Ratio [5]: 1.22
